Measured values reported in ChEMBL document CHEMBL5346883, “Discovery and pharmacological characterization of a novel benzimidazole TRPV4 antagonist with cyanocyclobutyl moiety” (Eur J Med Chem, 2023).

Experiments:
[1] = target: T1, Transient receptor potential cation channel subfamily V member 4 (Homo sapiens, UniProt Q9HBA0); assay: Antagonist activity at TRPV4 (unknown origin) expressed in Flp-In-CHO cells assessed as inhibition of GSK1016790A induced Ca2+ influx by calcium imaging method; format: cell-based
[2] = system: Mus musculus; assay: Antiinflammatory activity in LPS-induced acute lung injury mouse model assessed as pathological score at 1 mg/kg, ip by hematoxylin and eosin staining based analysis; format: functional
[3] = system: Mus musculus; assay: Antiinflammatory activity in LPS-induced acute lung injury mouse model assessed as BALF protein concentration at 1 mg/kg, ip; format: functional
[4] = target: T1, Transient receptor potential cation channel subfamily V member 4; assay: Antagonist activity at human TRPV4
[5] = Cytotoxicity against human HUVEC cells assessed as reduction in cell viability; format: toxicity, cell-based

T1 sequence (Q9HBA0 whole entry): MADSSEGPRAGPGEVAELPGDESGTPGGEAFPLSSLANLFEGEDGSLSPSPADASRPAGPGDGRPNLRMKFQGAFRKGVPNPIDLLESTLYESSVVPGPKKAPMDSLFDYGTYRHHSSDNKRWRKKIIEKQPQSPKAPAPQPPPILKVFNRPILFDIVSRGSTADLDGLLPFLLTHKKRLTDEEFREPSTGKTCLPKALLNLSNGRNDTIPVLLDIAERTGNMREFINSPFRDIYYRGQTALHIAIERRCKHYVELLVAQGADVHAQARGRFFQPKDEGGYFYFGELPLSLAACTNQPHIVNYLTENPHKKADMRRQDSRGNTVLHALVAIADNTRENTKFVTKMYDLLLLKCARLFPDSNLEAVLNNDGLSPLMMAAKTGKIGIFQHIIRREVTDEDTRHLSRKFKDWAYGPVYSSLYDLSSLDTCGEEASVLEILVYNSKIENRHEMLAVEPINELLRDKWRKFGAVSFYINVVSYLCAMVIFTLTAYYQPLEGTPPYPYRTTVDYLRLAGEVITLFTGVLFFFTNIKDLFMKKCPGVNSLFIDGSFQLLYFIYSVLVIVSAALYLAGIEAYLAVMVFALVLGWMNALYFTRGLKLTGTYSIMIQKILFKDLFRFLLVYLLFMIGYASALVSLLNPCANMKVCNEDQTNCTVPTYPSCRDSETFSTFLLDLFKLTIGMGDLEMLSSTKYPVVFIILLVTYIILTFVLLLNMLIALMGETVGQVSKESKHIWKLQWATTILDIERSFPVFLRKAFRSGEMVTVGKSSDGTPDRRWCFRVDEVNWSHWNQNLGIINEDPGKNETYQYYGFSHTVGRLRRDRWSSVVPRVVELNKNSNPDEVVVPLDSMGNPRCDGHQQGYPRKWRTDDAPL

For Cc1c(C(=O)Nc2cccc(C(F)(F)F)c2)cc(-c2ccccc2)n1CCCN1CCOCC1, the IC50 [1] was 0.0736 µM, the Activity [2] was 5.4 and the Activity [3] was 1.5. The IC50 [4] was 0.203 µM.

CC(C)C[C@H](NC(=O)c1cc2ccccc2s1)C(=O)N1CCN(C(=O)[C@H](CO)NS(=O)(=O)c2ccc(Cl)cc2Cl)CC1 gave an IC50 [1] of 0.122 µM.

Work on CC(=O)Nc1c(Cl)c(Cl)cc2c1nc(NC(C)C)n2C1CCN(c2ccc(C3(C#N)CCCC3)cc2)CC1 yielded a CC50 [5] of over 100 µM.

Compound CC(=O)Nc1c(Cl)c(Cl)cc2c1nc(NC(C)C)n2C1CCN(c2ccc(C3(C#N)CCC3)cc2)CC1 has a CC50 [5] of over 100 µM.
